Calls of active or inactive are those of the source. The rule behind the calls is not given here.
Experiments:
HCT-116 [1] = experiment: Induction of intracellular ROS generation in human HCT116 cells at 0.31 uM after 72 hrs by DCF-DA-dye based fluorescence microscopy (reference value: 2.74%); assay type: functional
HCT-116 [2] = experiment: Effect on caspase-8 expression in human HCT116 cells up to 5 uM after 48 hrs by Western blot analysis; assay type: functional, cell-based
HCT-116 [3] = experiment: Cytotoxicity against human HCT116 cells pretreated with Mn2+ followed by compound addition up to 5 uM measured after 72 hrs by MTT assay; assay type: functional, cell-based
[4] = target: Cellular tumor antigen p53 (Homo sapiens) (UniProt P04637); experiment: Activation of p53 in human HCT116 cells assessed as upregulation of p53 expression after 48 hrs by Western blot analysis; assay type: cell-based
HCT-116 [5] = experiment: Cytotoxicity against human HCT116 cells up to 5 uM after 72 hrs in presence of caspase inhibitor z-VAD-fmk by MTT assay; assay type: functional, cell-based
HCT-116 [6] = experiment: Antiproliferative activity against human HCT116 cells after 72 hrs by MTT assay; assay type: functional, cell-based; conditions: HCT-116, 72 h
HCT-116 [7] = experiment: Disruption of mitochondrial membrane potential in human HCT116 cells assessed as intact mitochondrial membrane at 1.25 uM after 72 hrs by JC1 staining-based flow cytometry method (reference value: 0.33%); assay type: functional
HCT-116 [8] = experiment: Induction of apoptosis in human HCT116 cells after 72 hrs by Annexin V-FITC/propidium iodide staining-based flow cytometric analysis; assay type: functional, cell-based
HCT-116 [9] = experiment: Cytotoxicity against human HCT116 cells pretreated with Mg2+ followed by compound addition up to 5 uM measured after 72 hrs by MTT assay; assay type: functional, cell-based
HCT-116 [10] = experiment: Induction of apoptosis in human HCT116 cells assessed as early apoptotic cells at 0.31 uM after 72 hrs by Annexin V-FITC/propidium iodide staining-based flow cytometric analysis (reference value: 5.30%); assay type: functional
HCT-116 [11] = experiment: Cytotoxicity against human HCT116 cells pretreated with K+ followed by compound addition up to 5 uM measured after 72 hrs by MTT assay; assay type: functional, cell-based
MCF7 = experiment: Antiproliferative activity against human MCF7 cells after 72 hrs by MTT assay; assay type: functional, cell-based; conditions: MCF7, 72 h
HCT-116 [12] = experiment: Induction of apoptosis in human HCT116 cells assessed as necrotic cells at 5 uM after 72 hrs by Annexin V-FITC/propidium iodide staining-based flow cytometric analysis (reference value: 0.76%); assay type: functional
HCT-116 [13] = experiment: Cytotoxicity against human HCT116 cells pretreated with Ca2+ followed by compound addition up to 5 uM measured after 72 hrs by MTT assay; assay type: functional, cell-based
[14] = Antiproliferative activity against human HBMEC cells after 72 hrs by MTT assay; assay type: cell-based
A549 = experiment: Antiproliferative activity against human A549 cells after 72 hrs by MTT assay; assay type: functional, cell-based; conditions: A549, 72 h
MGC-803 = experiment: Antiproliferative activity against human MGC803 cells after 72 hrs by MTT assay; assay type: functional, cell-based; conditions: MGC-803, 72 h
Bel-7402 = experiment: Antiproliferative activity against human Bel7402 cells after 72 hrs by MTT assay; assay type: functional, cell-based; conditions: Bel-7402, 72 h
Mus musculus [15] = experiment: Toxicity in BALB/c nude mouse xenografted with human HCT116 cells assessed as abnormality in spleen at 10 to 20 mg/kg, iv administered once per day by hematoxylin and eosin staining-based microscopic method; assay type: organism-based; conditions: in vivo
PC-3 = experiment: Antiproliferative activity against p53 deficient human PC3 cells at 0.31 to 5 uM after 72 hrs by MTT assay; assay type: functional, cell-based
[16] = target: Cellular tumor antigen p53 (Homo sapiens) (UniProt P04637); experiment: Activation of p53 in human HCT116 cells assessed as increase in cytochrome-c expression up to 5 uM after 48 hrs by Western blot analysis; assay type: cell-based
HCT-116 [17] = experiment: Disruption of mitochondrial membrane potential in human HCT116 cells assessed as intact mitochondrial membrane at 0.31 uM after 72 hrs by JC1 staining-based flow cytometry method (reference value: 0.33%); assay type: functional
HCT-116 [18] = experiment: Disruption of mitochondrial membrane potential in human HCT116 cells assessed as collapse of mitochondrial membrane potential at 1.25 uM after 72 hrs by JC1 staining-based flow cytometry method (reference value: […]); assay type: functional
HCT-116 [19] = experiment: Cytotoxicity in human HCT116 cells pretreated with Fe2+ followed by compound addition up to 5 uM measured after 72 hrs by MTT assay; assay type: functional, cell-based
HCT-116 [20] = experiment: Induction of apoptosis in human HCT116 cells assessed as viable cells at 5 uM after 72 hrs by Annexin V-FITC/propidium iodide staining-based flow cytometric analysis (reference value: 92.86%); assay type: functional; conditions: HCT-116, 72 h, read-out: Activity
Mus musculus [21] = experiment: Toxicity in BALB/c nude mouse xenografted with human HCT116 cells assessed as abnormality in kidney at 10 to 20 mg/kg, iv administered once per day by hematoxylin and eosin staining-based microscopic method; assay type: organism-based; conditions: in vivo
HepG2 = experiment: Antiproliferative activity against human HepG2 cells after 72 hrs by MTT assay; assay type: functional, cell-based; conditions: HepG2, 72 h
HCT-116 [22] = experiment: Cytotoxicity against human HCT116 cells pretreated with Cu2+ followed by compound addition up to 5 uM measured after 72 hrs by MTT assay; assay type: functional, cell-based
HCT-8 = experiment: Antiproliferative activity against human HCT8 cells after 72 hrs by MTT assay; assay type: functional, cell-based; conditions: HCT-8, 72 h
[23] = Antiproliferative activity against taxol-resistant human HCT8/T cells after 72 hrs by MTT assay; assay type: functional; conditions: HCT-8, 72 h
HCT-116 [24] = experiment: Induction of apoptosis in human HCT116 cells assessed as viable cells at 1.25 uM after 72 hrs by Annexin V-FITC/propidium iodide staining-based flow cytometric analysis (reference value: 92.86%); assay type: functional; conditions: HCT-116, 72 h, read-out: Activity

Cellular tumor antigen p53 (Homo sapiens), sequence (P04637 whole entry, looked up): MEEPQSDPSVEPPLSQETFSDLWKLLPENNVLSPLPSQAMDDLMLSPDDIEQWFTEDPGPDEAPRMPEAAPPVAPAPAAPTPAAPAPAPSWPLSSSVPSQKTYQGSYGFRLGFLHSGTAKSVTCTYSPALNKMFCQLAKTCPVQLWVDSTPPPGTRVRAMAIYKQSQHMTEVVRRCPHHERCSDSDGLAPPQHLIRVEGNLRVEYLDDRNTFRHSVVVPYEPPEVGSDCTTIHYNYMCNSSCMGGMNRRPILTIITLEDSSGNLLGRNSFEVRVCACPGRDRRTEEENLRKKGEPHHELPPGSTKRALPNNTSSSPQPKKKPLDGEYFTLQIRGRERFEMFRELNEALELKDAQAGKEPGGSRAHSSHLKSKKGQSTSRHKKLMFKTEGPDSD

CC(=O)N[C@H]1[C@H](O[C@H]2CC[C@]3(C)[C@H]4CC=C5[C@@H]6CC(C)(C)CC[C@]6(C(=O)OCc6cn(-c7cccc(C(C)=O)c7)nn6)CC[C@@]5(C)[C@]4(C)CC[C@H]3C2(C)C)O[C@H](CO[C@@H]2OC[C@H](O)[C@H](O)[C@@H]2O)[C@@H](O)[C@@H]1O
Activity (HCT-116 [1]): 12.87% | Activity (HCT-116 [2]): inactive | Activity (HCT-116 [3]): Active | Activity [4]: Dose-dependent effect | Activity (HCT-116 [5]): inactive | IC50 (HCT-116 [6]): 5.19 µM | Activity (HCT-116 [7]): 22.64% | Activity (HCT-116 [8]): Dose-dependent effect | Activity (HCT-116 [9]): Active | Activity (HCT-116 [10]): 5.94% | Activity (HCT-116 [11]): Active | IC50 (MCF7): 10.5 µM | Activity (HCT-116 [12]): 1.86% | Activity (HCT-116 [13]): Active | IC50 [14]: 32.2 µM | IC50 (A549): 9.18 µM | IC50 (MGC-803): 7.35 µM | IC50 (Bel-7402): 5.21 µM | Activity (Mus musculus [15]): Non-Toxic | Activity (PC-3): inactive | Activity [16]: Active | Activity (HCT-116 [17]): 10.97% | Activity (HCT-116 [18]): 77.36% | Activity (HCT-116 [19]): Active | viability at 5 µM (HCT-116 [20]): 38.5% | Activity (Mus musculus [21]): Non-Toxic | IC50 (HepG2): 6.5 µM | Activity (HCT-116 [22]): Active | IC50 (HCT-8): 6.78 µM | IC50 [23]: 6.05 µM | viability at 1.25 µM (HCT-116 [24]): 65.1%
